Measurements taken from the METLIN SMRT retention time set (Domingo-Almenara et al. 2019).

assay: gradient 5% acetonitrile 3 min, to 50% in 2 min, to 85% in 15 min, held 3 min, 100 µL/min; details: column: Zorbax Extend-C18 2.1 x 50 mm; eluents: water / acetonitrile, 0.1% formic acid
Summary of the method: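 Mixtures of ~100 pure standards were chromatographed on a Zorbax Extend-C18 column (2.1 × 50 mm, 1.8 μm) at 100 μL/min using water and acetonitrile, each with 0.1% formic acid. Detection used a quadrupole time-of-flight mass spectrometer in positive and negative ionization mode, and data collection spanned 3 months. Retention time was obtained from adduct peaks picked computationally and each checked manually.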

RP-LC retention time | SMILES
792 s | CCc1noc(NC(C)=O)c1-c1ccc(OC)c(S(=O)(=O)Nc2ccc(F)c(F)c2)c1
1040 s | COc1ccc(C(=O)Nc2nccnc2C(=O)NC2CCCCC2)cc1
856 s | COc1ccc(NC(=O)Cn2c(C)cc(-c3nnc(C4CC4)o3)c2C)cc1Cl
656 s | CCOC(=O)Cc1ccc(NC(=O)N2CCN(c3nc4ccccc4n3C)CC2)cc1
692 s | O=C(c1cn[nH]c1)N1CCCC1Cc1noc(C2CCCC2)n1 (stereo not given)
742 s | CC(=O)N1CCc2cc(N3CC(C(=O)NCc4cc(C)ccc4C)CC3=O)ccc21 (stereo not given)
1090 s | CCN1C(=O)COc2ccc(-c3csc(NC(=O)c4ccc(Cl)cc4)n3)cc21
739 s | Cn1ccc2cc(S(=O)(=O)N3CCC(C(=O)NCC4CCCO4)CC3)ccc21 (stereo not given)
570 s | Cc1nc(N2CCN(C)CC2)cc(N2CCN(C(=O)c3ccc(Br)o3)CC2)n1
1040 s | O=C1CCN(C2OC(CO)C(O)C2O)C(=O)N1 (stereo not given)
769 s | COc1ccc(C2Cn3nnc(C(=O)N4CCC(C(=O)NC5CCCC5)CC4)c3CO2)cc1 (stereo not given)
817 s | Cc1ccc(F)cc1S(=O)(=O)Nc1cccn2c(C3CCC3)nnc12
1230 s | CCOC(=O)C(CC)n1nc2nc(Nc3ccc(C)cc3)cc(C)n2c1=O (stereo not given)
902 s | O=c1c2c(CO)c(-c3ccccc3)nn2ccn1Cc1ccccc1F
707 s | O=c1[nH]c2ccc(NCc3ccc(Cl)c(Cl)c3)cc2[nH]1
588 s | CC(C)(C)C(=O)Nc1cnc(N2CCNCC2)c(C(=O)N2CCCC2)c1
629 s | Cc1cccc2nnc(N3CCN(C(=O)c4ccc(Cl)cc4)CC3)n12
845 s | CC1=C(c2ccc(Cl)cc2)S(=O)(=O)N=C1N1CCCN(C(=O)NCC(C)C)CC1
938 s | Cc1cc(-c2nnc(-c3ccccc3)o2)c(C)n1CC(=O)Nc1ccc(F)cc1
599 s | CS(=O)(=O)N1C[C@H]2CCN(Cc3ccc(Cl)cc3F)C[C@H]21
943 s | CCN1C(=O)COc2ccc(-c3csc(NC(=O)c4ccc(OC)c(OC)c4)n3)cc21
889 s | O=C(CCCc1nnc(C(=O)Nc2ccccc2)s1)NCCc1c[nH]c2ccc(Cl)cc12
886 s | CN(C)S(=O)(=O)c1ccc(-c2nnc(C(=O)NC3CCCCC3)o2)cc1

RP-LC retention time | SMILES
690 s | O=C(c1ccco1)N1CCCC(c2nnc(-c3cccs3)o2)C1 (stereo not given)
632 s | CN1C(=O)[C@H]2CN(Cc3ccc(Cl)c(F)c3)C[C@H]2C1=O
974 s | COc1ccc(C(=C2C(=O)Nc3ccccc32)c2ccc(OC)cc2)cc1
662 s | O=S(=O)(c1ccc2c(c1)CCC2)N1CCC(Cc2nc(-c3ccncc3)n[nH]2)C1 (stereo not given)
625 s | Cn1nc(-c2ccccc2)nc1C1CN(C(=O)NCC2CCCO2)C1 (stereo not given)
866 s | CCCn1cc(CCNS(=O)(=O)c2cccc(C)c2)c2cccnc21
738 s | CCc1nnc2c(=O)n(CC(=O)N3CCN(c4ccccc4)CC3)c3cccnc3n12
782 s | O=C(NC1CCN(c2cc(-c3cccs3)[nH]n2)C1)c1ccc(Br)cc1 (stereo not given)
722 s | CCOC(=O)c1noc2nc(C)nc(NCc3ccc(CC)cc3)c12
627 s | CCc1nc2cc(N3CCC(C(=O)NCc4ccc(N(C)C)cc4)CC3)cnc2nc1CC
628 s | CCOC(=O)c1c(C)oc2ncnc(N3CCN(c4ccccn4)CC3)c12
714 s | CC[C@H](Nc1ncnc2nc[nH]c12)c1nc2cccc(F)c2c(=O)n1-c1ccccc1
1190 s | CC(C)Cc1noc(C2(F)CCN(S(=O)(=O)c3cccc(Cl)c3)CC2)n1
585 s | CCN(CC)CCNC(=O)CCc1nc2c(C)nn(-c3ccccc3)c2n(C)c1=O
746 s | CC(C)CC(NC(=O)c1ccc(F)cc1)C(=O)Nc1nc2ccccc2[nH]1 (stereo not given)
839 s | CCC1Oc2ccc(S(=O)(=O)N3CCC(C(=O)NCc4ccc(OC)cc4)CC3)cc2NC1=O (stereo not given)
551 s | Cc1nccn1-c1ccc(=O)n(CCNC(=O)c2cccc(C(F)(F)F)c2)n1
1030 s | CC(C)Cn1c(=O)c2cc(C(=O)NC(C)c3ccco3)nn2c2ccccc21 (stereo not given)
691 s | Cc1ccc(-c2cc(=O)n(CC(=O)Nc3nccs3)cn2)cc1
575 s | Cn1nc(N2CCC(NC(=O)c3ccc[nH]c3=O)C2)ccc1=O (stereo not given)
610 s | O=C(N[C@@H]1CN(Cc2cc(Cl)ccc2F)C[C@H]1CO)C1CCC1
587 s | Cc1cc(C)c2c(n1)SCC(=O)N2CC(=O)NCCCN(C)Cc1ccccc1
